Experimental data as given in patent publication US8404664B2, “Phosphonated Rifamycins and uses thereof for the prevention and treatment of bone and joint infections” (Targanta Therapeutics, Inc., priority 2005, dated 2013).
Values after ≈ are worked out from the molar mass of the structure shown. Marks after values point to notes of the source that are not given here.

Key:
[1] = system: E. coli LBB925 (tolC mutant); test: Antibacterial susceptibility (MIC), NCCLS broth microdilution; assay type: cell-based; details: for Minimum inhibitory concentration, E. coli LBB925: tolC mutant; for MIC: Escherichia coli, read-out: Minimum inhibitory concentration, E. coli LBB925
[2] = system: S. aureus ATCC 13709 Novobiocin and Rifampicin resistant variant; test: microbe, parasite or virus in culture; assay type: cell-based; details: for Minimum inhibitory concentration, S. aureus ATCC 13709 variant: Novobiocin and Rifampicin resistant variant; for MIC: Staphylococcus aureus, ATCC13709, read-out: Minimum inhibitory concentration, S. aureus ATCC 13709 variant
Description: (§1) Susceptibility of S. aureus strains to the known antibiotics and synthesized compounds was determined by following the guidelines set by NCCLS (M26-A). Compounds were diluted two-fold serially in DMSO and transferred to cation-adjusted Mueller Hinton broth (CAMHB; Becton Dickinson). 50 μL of compounds diluted in CAMHB was mixed with 100 μL of bacteria diluted in CAMHB in 96-well microtiter plates. The final concentration of micro-organisms in the assay was 5×10^5 c.f.u. per mL and the final concentration of DMSO in the assay was 1.25%. Assays were set up in duplicate and incubated at 37° C. for 18 h. The lowest concentration of compound that inhibited visible growth was reported as the minimum inhibitory concentration (MIC).

[3] = Regeneration of drug from bone powder-bound prodrug; assay type: in vitro ADME; details: for % Conversion of bone-bound prodrug to parent drug: 24 h incubation, 37° C.; for Impact of the medium on the rate of regeneration of parent drug (in words): serum compared to PBS
Description: Amounts of parent drug “regenerated” from the phosphonated prodrug were measured as follows. Washed bone powder-bound prodrugs from the above experiment were resuspended in 400 μL PBS+2% DMSO or in 400 μL 50% (v/v in PBS+2% DMSO) human or rat serum. The suspension was incubated overnight at 37° C., centrifuged at 13,000 rpm for 2 min and the supernatant was recovered. The amount of regenerated parent drug in the supernatant was determined by measurements using the microbiological assay that was previously described for the prodrugs themselves. The amount of prodrug was deduced from standard curves of known amounts of parent drug that were used as reference for each experiment.

[4] = system: S. aureus ATCC 13709 Novobiocin resistant mutant (bone infection); test: Prophylactic efficacy in rat model of S. aureus bone infection; assay type: in vivo; details: rat tibia 24 h postinfection, 3 days prior to infection
Description: Specifically, a spontaneous Novobiocin resistant mutant strain of S. aureus ATCC 13709 (a clinical osteomyelitis isolate), was grown overnight at 37° C. in brain heart infusion broth (BHIB). After 16 h of growth, cells were subcultured into fresh BHIB and incubated for 4 to 5 h at 37° C. The cells were washed twice with phosphate-buffered saline (PBS) and resuspended in BHIB supplemented with 10% (vol./vol.) fetal bovine serum at a density of approximately 10^10 colony forming units (CFU)/ml (based upon turbidimetry). The suspension was aliquoted and a portion was used to check the CFU count. The culture was stored frozen (−80° C.) and was used without subculture. For use as an inoculum the culture was thawed, diluted in PBS and kept in an ice bath until it was used.
Animals were infected as described by O'Reilly et al. (Antimicrobial Agents and Chemotherapy (1992), 36(12): 2693-97) to generate the bone infection. Female CD rats (age, 57 to 70 days; n=5/group; Charles River, St-Constant, Canada) were anaesthetized by isofluorane before and during the surgery. Following complete induction of anesthesia, the rat was placed ventral side up and hair was shaved from the surgical site. The skin over the leg was cleaned and disinfected (proviodine-ethanol 70%). A longitudinal incision below the knee joint was made in the sagital plane. The incision was made over the bone below the “knee joint” (tibia head or condyle) but not completely extending to the ankle. A high speed drill fitted with a 2 mm bulb bit was used to drill a hole into the medullar cavity of the tibia. Rats were injected intra-tibially with 0.05 ml 5% sodium morrhuate (sclerosing agent) and then with 0.05 ml of S. aureus suspension (ca. 2×10^7 CFU/rat). The hole was sealed by applying a small amount of dry dental cement which immediately absorbs fluids and adheres to the site. The wound was closed using 3 metal skin clips. Moxifloxacin (as a positive control) was injected once at 10 mg/kg intravenously 1 h postinfection in saline, while the Rifamycin derived prodrugs (prepared in 0.9% saline) were injected at the dose indicated in Table 3 as a single intravenous bolus at different time points prior to the infection.
Infected rats were sacrificed by CO2 asphyxiation 24 h postinfection to monitor the bacterial CFU count. Infected tibiae were removed, dissected free of soft tissue, and weighed. The bones were ground, resuspended in 5 ml 0.9% NaCl, serially diluted and processed for quantitative cultures. For compounds 50, 68 and 81, 1 ml of the 0.9% NaCl solution was added to 50 mg of charcoal before serial dilutions. Treatment efficacy was measured in terms of Log viable bacteria (Log CFU per gram of bone). […] The limit of detection is 2 Log CFU. […] Differences were considered significant when the P value was <0.05 when comparing treated infected animals to the untreated infected ones. The doses used, the amount of time separating the treatment from the time of infection and the treatment outcomes are shown in Table 3.

[5] = system: S. aureus BK85 (Fluoroquinolone resistant MRSA); test: Antibacterial susceptibility (MIC), NCCLS broth microdilution; assay type: cell-based; details: for MIC: Staphylococcus aureus, read-out: Minimum inhibitory concentration, S. aureus BK85
Description: as §1

S. aureus ATCC 13709 [6] = test: as above; assay type: cell-based; details: for MIC: Staphylococcus aureus, ATCC13709, read-out: Minimum inhibitory concentration, S. aureus ATCC 13709
Description: as §1

[7] = system: S. aureus ATCC 43300 (Fluoroquinolone sensitive MRSA); test: as above; assay type: cell-based; details: for MIC: Staphylococcus aureus, read-out: Minimum inhibitory concentration, S. aureus ATCC 43300
Description: as §1

S. aureus RN4220 = test: as above; assay type: cell-based; details: CAMHB, 37° C., 18 h; for MIC: Staphylococcus aureus, RN4220, read-out: Minimum inhibitory concentration, S. aureus RN4220
Description: as §1

S. aureus ATCC 13709 [8] = test: Antibacterial susceptibility (MIC) in the presence of serum; assay type: cell-based; details: for MIC: Staphylococcus aureus, ATCC13709, 18 h
Description: as §1
Susceptibility testing experiments were also carried out in the presence of serum.
These experiments were carried out similar to the susceptibility testing with the following modifications. 75 μL of compounds diluted in CAMHB was mixed with 75 μL of bacteria diluted in 100% serum from any given source (commercial pooled mouse serum (MS) and human serum (HS), Equitech-Bio Inc.) or diluted in 8% purified human serum albumin (HSA) (Calbiochem). The final concentration of animal serum in the assay was 50% and the final concentration of purified human serum albumin in the assay was 4%; the concentrations of all other components were identical to those described for susceptibility testing.

[9] = single dose 20 mg/kg parent drug equivalent
[10] = read-out: Minimum inhibitory concentration, S. aureus ATCC 13709 + 50% Human Serum
[11] = read-out: Minimum inhibitory concentration, S. aureus ATCC 13709 + 50% Mouse Serum
[12] = read-out: Minimum inhibitory concentration, S. aureus ATCC 13709 + 50% Rat Serum

SMILES | Minimum inhibitory concentration, E. coli LBB925 [1] [µg/mL] | Activity against the Rifampicin resistant variant of S. aureus ATCC13709 (in words) [2] | Minimum inhibitory concentration, S. aureus ATCC 13709 variant [2] [µg/mL] | % Conversion of bone-bound prodrug to parent drug ([3]; 50% Rat Serum) [%] | % Conversion of bone-bound prodrug to parent drug ([3]; PBS) [%] | Impact of the medium on the rate of regeneration of parent drug (in words) [3] | Measured bacterial titer [4, 9] | Minimum inhibitory concentration, S. aureus BK85 [5] [µg/mL] | Minimum inhibitory concentration, S. aureus ATCC 13709 (S. aureus ATCC 13709 [6]) [µg/mL] | Minimum inhibitory concentration, S. aureus ATCC 43300 [7] [µg/mL] | Minimum inhibitory concentration, S. aureus RN4220 (S. aureus RN4220) [µg/mL] | Minimum inhibitory concentration, S. aureus ATCC 13709 + 50% Human Serum (S. aureus ATCC 13709 [8]) [µg/mL] | Minimum inhibitory concentration, S. aureus ATCC 13709 + 50% Mouse Serum (S. aureus ATCC 13709 [8]) [µg/mL] | Minimum inhibitory concentration, S. aureus ATCC 13709 + 50% Rat Serum (S. aureus ATCC 13709 [8]) [µg/mL] | MIC [1] [µg/mL] | MIC [2] [µg/mL] | MIC [5] [µg/mL] | MIC (S. aureus ATCC 13709 [6]) [µg/mL] | MIC [7] [µg/mL] | MIC (S. aureus RN4220) [µg/mL] | other results
CCN(CC)CC.CCN(CC)CC.CO[C@H]1/C=C/O[C@@]2(C)Oc3c(C)c(O)c4c(c3C2=O)C2=NC3(CCN(CC(C)C)CC3)N(C(=O)OCOC(=O)CCCC(P(=O)(O)O)P(=O)(O)O)C2=C(NC(=O)/C(C)=C\C=C\[C@H](C)[C@H](O)[C@@H](C)[C@@H](O)[C@@H](C)[C@H](OC(C)=O)[C@@H]1C)C4=O [Compound 50] | 16 | complete lack of activity | >128 | 2.68 | 2.65 | not significantly impacted | 6.31 ± 0.82 Log CFU/g of bone | 0.25 | 0.25 | 0.25 | 0.25 | 0.125 | 0.125 | 0.032 |  |  |  |  |  |  | Impact of serum on the MICs (in words) (S. aureus ATCC 13709 [8]): no impact
CO[C@H]1/C=C/O[C@@]2(C)Oc3c(C)c(O)c4c(=O)c(c5oc6cc(N7CCC(O)CC7)cc(O)c6nc-5c4c3C2=O)NC(=O)/C(C)=C\C=C\[C@H](C)[C@H](O)[C@@H](C)[C@@H](O)[C@@H](C)[C@H](OC(C)=O)[C@@H]1C [Compound 63, 1′,4-Didehydro-1-deoxy-1,4-dihydro-3′-hydroxy-5′-[4-hydroxy-1-piperidinyl]-1-oxorifamycin VIII] |  |  |  |  |  |  | 2.84 ± 0.93 Log CFU/g of bone |  |  |  |  |  |  |  | 8 (≈ 8890 nM) | 2 (≈ 2220 nM) | 0.00048 (≈ 0.533 nM) | 0.00048 (≈ 0.533 nM) | 0.00048 (≈ 0.533 nM) | 0.00048 (≈ 0.533 nM) | MIC (S. aureus ATCC 13709 [8]; [10]): 0.0078 µg/mL; MIC (S. aureus ATCC 13709 [8]; [11]): 0.0156 µg/mL; MIC (S. aureus ATCC 13709 [8]; [12]): 0.032 µg/mL
CO[C@H]1/C=C/O[C@@]2(C)Oc3c(C)c(O)c4c(=O)c(c5oc6cc(N7CCC(OC(=O)CCC(=O)NC(P(=O)(O)O)P(=O)(O)O)CC7)cc(O)c6nc-5c4c3C2=O)NC(=O)/C(C)=C\C=C\[C@H](C)[C@H](O)[C@@H](C)[C@@H](O)[C@@H](C)[C@H](OC(C)=O)[C@@H]1C [Compound 68] | 64 (≈ 54600 nM) | complete lack of activity | >128 | 0.24 | 0.02 | significant acceleration | 4.86 ± 0.66 Log CFU/g of bone | 0.25 (≈ 213 nM) | 0.0625 (≈ 53.3 nM) | 0.0625 (≈ 53.3 nM) | 0.25 (≈ 213 nM) | 1 | 1 | 2 |  |  |  |  |  |  | Regeneration of parent drug once bound to bone (in words) [3]: only slightly regenerates
CO[C@H]1/C=C/O[C@@]2(C)Oc3c(C)c(O)c4c(=O)c(c5oc6cc(N7CCN(CC(C)C)CC7)cc(O)c6nc-5c4c3C2=O)NC(=O)/C(C)=C\C=C\[C@H](C)[C@H](O)[C@@H](C)[C@@H](O)[C@@H](C)[C@H](OC(C)=O)[C@@H]1C [Rifalazil, 1′,4-Didehydro-1-deoxy-1,4-dihydro-3′-hydroxy-5′-[4-(2-methylpropyl)-1-piperazinyl]-1-oxorifamycin VIII, reference compound] |  |  |  |  |  |  | 4.08 ± 1.53^a Log CFU/g of bone |  |  |  |  |  |  |  | 16 (≈ 17000 nM) | 16 (≈ 17000 nM) | 0.001 (≈ 1.06 nM) | 0.001 (≈ 1.06 nM) | 0.001 (≈ 1.06 nM) | 0.00048 (≈ 0.51 nM) | Measured bacterial titer ([4]; single dose 10 mg/kg parent drug equivalent): 2.21 ± 0.34 Log CFU/g of bone; MIC (S. aureus ATCC 13709 [8]; [10]): 0.032 µg/mL; MIC (S. aureus ATCC 13709 [8]; [11]): 0.032 µg/mL; MIC (S. aureus ATCC 13709 [8]; [12]): 0.0078 µg/mL
